Source: PMC8457654 (European Journal of Medicinal Chemistry, 2021)
Where a SMILES comes first, the peptide text is derived from it. [ ]: non-standard residue; d: D form. The star is where a group is joined. AllylGly = C=CC[C@H](N)C(=O)O; Boc = CC(C)(C)OC(=O)*; NHBn = c1ccc(CN*)cc1; NHtBu = CC(C)(C)N*; ClAc = O=C(CCl)*

How the values were obtained:
SARS-CoV-2 PL^pro = SARS-CoV-2 PL^pro (Severe acute respiratory syndrome coronavirus 2, UniProt P0DTD1); assay: PL^pro enzymatic assay; format: biochemical
[1] = tested on: SARS-CoV-2 UC-1075 strain; assay: SARS-CoV-2 antiviral assay in Vero cells, strain UC-1075; format: cell-based; details: Severe acute respiratory syndrome coronavirus 2, UC1075, Vero, 120 h, read-out: Antiviral activity EC50 UC-1075 #1 strain Vero cells
cytomegalovirus = assay: Antiviral activity over Vero cells infected with CMV; format: cell-based; details: data not shown
varicella zoster virus = assay: Antiviral activity over Vero cells infected with VZV; format: cell-based; details: data not shown
[2] = tested on: SARS-CoV-2 UC-1074 strain; assay: SARS-CoV-2 antiviral assay in Vero cells, strain UC-1074; format: cell-based; details: over two different SARS-CoV-2 strains as worded

Structure (SMILES)	IC50 (SARS-CoV-2 PL^pro) [µM]	also measured
CC(C)(C)NC(=O)[C@H](Cc1c[nH]c2ccccc12)NC(=O)[C@@H]1CCCN1C(=O)OC(C)(C)C [Compound 7, tert-butyl 2-((1-(tert-butylamino)-3-(1H-indol-3-yl)-1-oxopropan-2-yl)carbamoyl)pyrrolidine-1-carboxylate] (Boc-Pro-Trp-NHtBu)	> 25	–
CC(C)(C)NC(=O)[C@H](Cc1c[nH]c2ccccc12)NC(=O)[C@H](Cc1ccccc1)NCc1ccc(-c2ccccc2)cc1 [Compound 22, (S)-2-(([1,1′-biphenyl]-4-ylmethyl)amino)-N-((S)-1-(tert-butylamino)-3-(1H-indol-3-yl)-1-oxopropan-2-yl)-3-phenylpropanamide]	> 25	–
CC(C)C[C@H](NCc1ccc(-c2ccccc2)cc1)C(=O)N[C@@H](Cc1c[nH]c2ccccc12)C(=O)NC(C)(C)C [Compound 23, 2-(([1,1′-biphenyl]-4-ylmethyl)amino)-N-(1-(tert-butylamino)-3-(1H-indol-3-yl)-1-oxopropan-2-yl)-4-methylpentanamide]	> 25	–
C#CC[C@H](NCc1ccc(-c2ccccc2)cc1)C(=O)N[C@@H](Cc1c[nH]c2ccccc12)C(=O)NC(C)(C)C [Compound 24, (S)-2-(([1,1′-biphenyl]-4-ylmethyl)amino)-N-((S)-1-(tert-butylamino)-3-(1H-indol-3-yl)-1-oxopropan-2-yl)pent-4-ynamide]	> 25	–
CC(C)C[C@H](NCc1ccc(-c2ccccc2)cc1)C(=O)N[C@@H](Cc1c[nH]c2ccccc12)C(=O)NCc1ccccc1 [Compound 25, (S)-2-(([1,1′-biphenyl]-4-ylmethyl)amino)-N-((S)-1-(benzylamino)-3-(1H-indol-3-yl)-1-oxopropan-2-yl)-4-methylpentanamide]	> 25	EC50 [1]: > 20 µM
C=CC[C@H](NCc1ccccc1)C(=O)N[C@@H](Cc1c[nH]c2ccccc12)C(=O)NCc1ccc(-c2ccccc2)cc1 [Compound 26, (S)–N-((S)-1-(([1,1′-biphenyl]-4-ylmethyl)amino)-3-(1H-indol-3-yl)-1-oxopropan-2-yl)-2-(benzylamino)pent-4-enamide]	> 25	–
C#CC[C@H](NCc1ccccc1)C(=O)N[C@@H](Cc1c[nH]c2ccccc12)C(=O)NCc1ccc(-c2ccccc2)cc1 [Compound 27, (S)–N-((S)-1-(([1,1′-biphenyl]-4-ylmethyl)amino)-3-(1H-indol-3-yl)-1-oxopropan-2-yl)-2-(benzylamino)pent-4-ynamide]	> 25	Antiviral effect over cytomegalovirus (cytomegalovirus): no effects; Antiviral effect over varicella zoster virus (varicella zoster virus): no effects
C#CC[C@H](NCCC)C(=O)N[C@@H](Cc1c[nH]c2ccccc12)C(=O)NCc1ccc(-c2ccccc2)cc1 [Compound 28, (S)–N-((S)-1-(([1,1′-biphenyl]-4-ylmethyl)amino)-3-(1H-indol-3-yl)-1-oxopropan-2-yl)-2-(propylamino)pent-4-ynamide]	> 25	–
C=CC[C@H](NC(=O)CCl)C(=O)N[C@@H](Cc1c[nH]c2ccccc12)C(=O)NCc1ccccc1 [Compound 29, (S)–N-((S)-1-(benzylamino)-3-(1H-indol-3-yl)-1-oxopropan-2-yl)-2-(2-chloroacetamido)pent-4-enamide] (ClAc-[AllylGly]-Trp-NHBn)	–	Cellular antiviral potency relative to compound 27 (fold higher) [2]: 28 fold; Antiviral effect over cytomegalovirus (cytomegalovirus): no effects; Antiviral effect over varicella zoster virus (varicella zoster virus): no effects
C#CC[C@H](NC(=O)OC(C)(C)C)C(=O)N(Cc1ccccc1)Cc1cn(C)c2ccc(C(=O)OC)cc12 [Compound 35, (S)-Methyl 3-((N-benzyl-2-((tert-butoxycarbonyl)amino)pent-4-ynamido)methyl)-1-methyl-1H-indole-5-carboxylate]	> 25	–
